Assay results: patent US20250332173A1, “COMPOUNDS AND METHODS FOR MODULATING NUCLEIC ACID SPLICING” (REMIX THERAPEUTICS INC., priority 2021, published 2025)
Read-outs that look alike come from different tables or passages of the source.

Columns and labels:
Assay type in all cases: cell-based, human
HTT mRNA = assay: RT-qPCR splicing assay, HTT canonical junction (CJ) and alternative junction (AJ) mRNA; details: Homo sapiens; for AC50: increase in HTT alternative junction (AJ) mRNA, read-out: HTT AJ AC50
Summary of the method: (§1)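 Following a 24-hour incubation of A673 or K562 cells with serially diluted compound (3-fold steps, highest final 10 uM), the lysates undergo cDNA synthesis plus qPCR. Canonical and alternative junctions are each quantified against PPIA, GAPDH or GUSB.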

MYB mRNA = assay: RT-qPCR splicing assay, MYB canonical junction (CJ) and alternative junction (AJ) mRNA; details: Homo sapiens; for AC50: increase in MYB alternative junction (AJ) mRNA, read-out: MYB AJ AC50
Summary of the method: as §1

SMN2 mRNA = assay: RT-qPCR splicing assay, SMN2 canonical junction (CJ) mRNA; details: Homo sapiens; Table 5 panel; canonical junction qPCR; compound concentration having 50% response in CJ decrease; read-out: SMN2 IC50 (decrease in CJ mRNA levels)
Summary of the method: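 Cells are plated (A673 allowed 24 h to adhere), dosed with an 11-point 3-fold series topping at 10 uM final, and incubated 24 h at 37 °C. Lysis is followed by cDNA synthesis and qPCR of the CJ transcript, normalized to a housekeeping gene.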

[1] = decrease in HTT canonical junction (CJ) mRNA, RT-qPCR, read-out: HTT CJ IC50
[2] = Table 5 panel, canonical junction qPCR, compound concentration having 50% response in CJ decrease, read-out: HTT IC50 (decrease in CJ mRNA levels)
[3] = Table 5 panel, canonical junction qPCR, compound concentration having 50% response in CJ decrease, read-out: MYB IC50 (decrease in CJ mRNA levels)
[4] = decrease in MYB canonical junction (CJ) mRNA, RT-qPCR, read-out: MYB CJ IC50

| Structure (SMILES) | IC50 (HTT mRNA; [1]) | IC50 (HTT mRNA; [2]) | IC50 (MYB mRNA; [3]) | IC50 (MYB mRNA; [4]) | IC50 (SMN2 mRNA) | AC50 (HTT mRNA; RT-qPCR) | AC50 (MYB mRNA; RT-qPCR) |
| --- | --- | --- | --- | --- | --- | --- | --- |
| CC(=O)c1cc(-c2cc(F)c3c(=O)n(C4CCNCC4)ccc3c2)cn2cc(C)nc12 [Compound 393, 6-{8-acetyl-2-methylimidazo[1,2-a]pyridin-6-yl}-8-fluoro-2-(piperidin-4-yl)isoquinolin-1-one 2,2,2-trifluoroacetate] | 1000 to 10000 nM | 100 to 1000 nM | 100 to 1000 nM | 100 to 1000 nM | < 100 nM | 100 to 1000 nM | 100 to 1000 nM |
| Cn1cc2cc(-c3cc(F)c4c(=O)n(C5CCNCC5)ccc4c3)cc(C#N)c2n1 [Compound 394, 5-(8-fluoro-1-oxo-2-(piperidin-4-yl)-1,2-dihydroisoquinolin-6-yl)-2-methyl-2H-indazole-7-carbonitrile] | < 100 nM | < 100 nM | < 100 nM | < 100 nM | < 100 nM | < 100 nM | < 100 nM |
| CCN1CCC(n2ccc3cc(-c4cc(C)c5nc(C)cn5n4)ccc3c2=O)CC1 [Compound 402, 6-{2,8-dimethylimidazo[1,2-b]pyridazin-6-yl}-2-(1-ethylpiperidin-4-yl)isoquinolin-1-one] | 100 to 1000 nM | 100 to 1000 nM | < 100 nM | 100 to 1000 nM | < 100 nM | 100 to 1000 nM | < 100 nM |
| Cc1cn2cc(-c3ccc4c(=O)n([C@H]5CCCNC5)ccc4c3)cc(F)c2n1 [Compound 404, 6-{8-fluoro-2-methylimidazo[1,2-a]pyridin-6-yl}-2-[(3S)-piperidin-3-yl]isoquinolin-1-one] | 1000 to 10000 nM | 1000 to 10000 nM | 1000 to 10000 nM | 1000 to 10000 nM | < 100 nM | 1000 to 10000 nM | 1000 to 10000 nM |

The next lines start with results.

| IC50 (HTT mRNA; [1]) | IC50 (HTT mRNA; [2]) | IC50 (MYB mRNA; [3]) | IC50 (MYB mRNA; [4]) | IC50 (SMN2 mRNA) | Structure (SMILES) | AC50 (HTT mRNA; RT-qPCR) | AC50 (MYB mRNA; RT-qPCR) |
| --- | --- | --- | --- | --- | --- | --- | --- |
| < 100 nM | < 100 nM | < 100 nM | < 100 nM | < 100 nM | Cc1cn2nc(-c3cc(C#N)c4c(=O)n(C5CCNC6(CC6)C5)ccc4c3)cc(C)c2n1 (stereo not drawn) [Compound 387] | < 100 nM | < 100 nM |
| < 100 nM | < 100 nM | < 100 nM | < 100 nM | < 100 nM | Cc1cn2nc(-c3cc(Cl)c4c(=O)n(C5CCNCC5)ccc4c3)cc(C)c2n1 [Compound 390, 8-chloro-6-{2,8-dimethylimidazo[1,2-b]pyridazin-6-yl}-2-(piperidin-4-yl)isoquinolin-1-one; trifluoroacetaldehyde] | < 100 nM | < 100 nM |
| < 100 nM | < 100 nM | < 100 nM | < 100 nM | < 100 nM | Cc1cn2nc(-c3cc(O)c4c(=O)n(C5CCNCC5)ccc4c3)cc(C)c2n1 [Compound 391, 6-(2,8-dimethylimidazo[1,2-b]pyridazin-6-yl)-8-hydroxy-2-(piperidin-4-yl)isoquinolin-1(2H)-one] | < 100 nM | < 100 nM |
| 100 to 1000 nM | 100 to 1000 nM | 100 to 1000 nM | 100 to 1000 nM | < 100 nM | COc1cc(-c2cc(C)c3nc(C)cn3n2)cc2ccn(C3CCNCC3)c(=O)c12 [Compound 399, 6-{2,8-dimethylimidazo[1,2-b]pyridazin-6-yl}-8-methoxy-2-(piperidin-4-yl)isoquinolin-1-one] | 100 to 1000 nM | 100 to 1000 nM |
| < 100 nM | < 100 nM | < 100 nM | < 100 nM | < 100 nM | Cc1cn2nc(-c3cc(F)c4c(=O)n(C5CCN(C)CC5)ccc4c3)cc(C)c2n1 [Compound 400, 6-(2,8-dimethylimidazo[1,2-b]pyridazin-6-yl)-8-fluoro-2-(1-methylpiperidin-4-yl)isoquinolin-1(2H)-one] | < 100 nM | < 100 nM |
